Consider three compounds from patent publication US6187783A, “Phenanthridinium derivatives” (Nippon Kayaku Kabushiki Kaisha, priority 1996, dated 2001).

In data set [1] the test system is Human uterus cancer-derived cells HeLa S3. The data set can be described thus: Growth prevention against cancer cells (72 h contact, Methylene Blue staining). In kind it is cell-based. The settings on record: HeLa S3, 72 hours contact, 37° C., read-out: 50% Inhibitory Concentration (IC50). As to the method: The compounds of the present invention were examined on the antitumor activity, and the thus obtained results are shown below.
1. Growth prevention against cancer cells
Human uterus cancer-derived cells HeLa S3 were incubated at 37° C. for 24 hours in 5% CO2. A test compound was then brought into contact with the cells for 72 hours. Then, the cells were stained with 0.05% Methylene Blue. The pigment was extracted from the stained cells. The growth inhibition of the cells were determined based on absorbance at 660 nm to calculate 50% growth inhibitory concentration (IC50).

Data set [2] deals with Mouse leukemia cells P388. The data set can be described thus: Antitumor effect on cancer cells in vivo (P388 leukemia, survival). On the set-up: species or system mouse (female CDF1 mice). The conditions noted are these: i.v. single administration; for Survived Days: P388 in female CDF1 mice; for Effect (T/C %): ratio of survival days to median of control group. How it is done: 2. Antitumor effect on cancer cells in vivo
Mouse leukemia cells P388 was intravenously injected to female CDF1 mice of 6 weeks old in a dose of 10^5 cells/mouse. A 5% glucose aqueous solution of 2,3-(methylenedioxy)-7-hydroxy-8-methoxy-5,6-propano-benzo[c]phenanthridinium chloride (Compound No. A-4 of the present invention, (X^- =Cl^-)) was intravenously injected by single administration on the day following the tumor transportation. The antitumor effect was evaluated by comparing the ratio (T/C %) of survival days to the median of survival days in the control group (5 mice).

The next data set has as its system female CDF1 mice. The data set is described as follows: Acute toxicity by intravenous injection. The class given is in vivo, mouse (female CDF1 mice). The conditions noted are these: female CDF1 mice of 6 weeks old. How it is done: The acute toxicity was assessed by intravenous injection of 2,3-(methylenedioxy)-7-hydroxy-8-methoxy-5,6-propano-benzo[c]phenanthridinium chloride (Compound No. A-4 of the present invention, (X^- =Cl^-)) to female CDF1 mice of 6 weeks old.

Data set [3] is described as follows: Chemical reduction with sodium cyanoborohydride. The class given is physicochemical. How it is done:
(§1) In addition, when an in vitro metabolic test using liver homogenate (S9) prepared from human liver was performed with reference to the method described in Arch. […] This product coincided with the reduced product formed by the chemical reduction described above.
(§2) 2,3-(Methylenedioxy)-7-hydroxy-8-methoxy-5,6-propano-benzo[c]phenanthridinium chloride, which is one of the compounds of the present invention, was treated with sodium cyanoborohydride in an aqueous solution at room temperature.
The compound of the present invention (0.1 mg/mL aqueous solution, 0.1 mL) was diluted with methanol (1.0 mL). An aqueous solution of sodium cyanoborohydride (4 mg/mL, 0.02 mL) was added to the solution. The mixture was allowed to stand at room temperature. The reaction was terminated by adding 1% aqueous phosphoric acid (1 mL) thereto. The residual amount of the compound was determined by high performance liquid chromatography. As a control, 2,3-(methylenedioxy)-5-methyl-7-hydroxy-8-methoxy-benzo[c]phenanthridiniumhydrogensulfate was similarly reacted.

Data set [4] in a line: In vitro metabolic test using liver homogenate (S9). The class given is in vitro ADME, human. How it is done:
as §1, §2

Where [5] appears, read: aqueous sodium cyanoborohydride.

Molecules are shown by their SMILES. Like-named read-outs stand apart in the source and are kept apart here. Where only a bound is given, the exact number is not on record here.

On to `COc1ccc2c(c1O)c1[n+](c3c4cc5c(cc4ccc23)OCO5)CCC1` [Compound No. A-4, 2,3-(methylenedioxy)-7-hydroxy-8-methoxy-5,6-propano-benzo[c]phenanthridinium chloride], for which the IC50 in data set [1] was found to be 170 nM. Besides, the “Survived Days” value in data set [2] (25 mg/kg/day) was 14 days; in data set [2] (50 mg/kg/day), 21 days; in data set [2] (75 mg/kg/day), over 30 days; in data set [2] (100 mg/kg/day), over 30 days. The “Effect (T/C %)” value in data set [2] (25 mg/kg/day) is 167%; in data set [2] (50 mg/kg/day), 250%; in data set [2] (75 mg/kg/day), over 357%; in data set [2] (100 mg/kg/day), over 357%. Also, the “Acute toxicity (survival)” value in the data set with female CDF1 mice is given as “survived even in a dose of 100 mg/kg, without showing any death”. Also, the “Amount of Compound remained after Reduction” value in data set [3] (setting [5]) is recorded as 50. Also, the Production of metabolite result in data set [4] was “no metabolite was produced”.
For the compound `COc1ccc2c(c1O)c1[n+](c3c4cc5c(cc4ccc23)OCO5)CCCC1` [Compound No. A-7, 2,3-(methylenedioxy)-7-hydroxy-8-methoxy-5,6-butano-benzo[c]phenanthridinium chloride], in data set [1], the IC50 was determined as 5600 nM. In data set [3] (setting [5]), the “Amount of Compound remained after Reduction” value was found to be 100.
With `COc1ccc2c(c[n+](C)c3c4cc5c(cc4ccc23)OCO5)c1O` [Control, 2,3-(methylenedioxy)-5-methyl-7-hydroxy-8-methoxy-benzo[c]phenanthridiniumhydrogensulfate, reference compound], in data set [3] (aqueous solution, room temperature), the “Disappearance on treatment with sodium cyanoborohydride” value is on record as “the phenanthridinium is lost in a few minutes”. In addition, in data set [3] (sodium cyanoborohydride, room temperature, terminated with phosphoric acid, HPLC), the “Amount of Compound remained after Reduction” value is 0. In addition, the Production of metabolite entry in data set [4] (in vitro, liver homogenate (S9) prepared from human liver) was “production of the metabolite was observed”.
